What was measured:
[1] = molecular target: T1, Spns2 (Spinster homolog 2) (Homo sapiens, UniProt Q8IVW8); test: cell-based FTY720-P transport assay, WT vs mutants
T1 sequence (Q8IVW8 1-549): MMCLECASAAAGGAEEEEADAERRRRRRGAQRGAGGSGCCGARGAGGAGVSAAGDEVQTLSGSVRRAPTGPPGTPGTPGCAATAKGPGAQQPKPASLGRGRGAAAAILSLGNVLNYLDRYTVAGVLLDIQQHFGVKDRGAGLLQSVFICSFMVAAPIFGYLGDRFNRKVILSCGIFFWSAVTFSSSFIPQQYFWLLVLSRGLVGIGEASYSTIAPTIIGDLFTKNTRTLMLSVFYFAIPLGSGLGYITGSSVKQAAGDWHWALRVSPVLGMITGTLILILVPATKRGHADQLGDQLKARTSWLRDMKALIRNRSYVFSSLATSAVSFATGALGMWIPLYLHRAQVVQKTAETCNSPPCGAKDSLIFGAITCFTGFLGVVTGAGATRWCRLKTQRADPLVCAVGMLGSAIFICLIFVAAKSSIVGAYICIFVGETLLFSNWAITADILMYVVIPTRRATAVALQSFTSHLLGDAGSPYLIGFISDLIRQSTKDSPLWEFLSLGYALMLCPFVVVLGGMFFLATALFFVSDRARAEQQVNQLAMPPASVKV

[2] = molecular target: T2, Spns2 (Spinster homolog 2) (Homo sapiens, UniProt Q8IVW8); test: cryo-EM structure ([…] Å); affinity selection mass spectrometry; cell-based S1P efflux assay; format: binding
T2 construct: Spns2fusion: PGS (Pyrococcus abyssi glycogen synthase) fused between F222 and T223 on intracellular loop 2
T2 sequence (Q8IVW8 1-222 limits assumed): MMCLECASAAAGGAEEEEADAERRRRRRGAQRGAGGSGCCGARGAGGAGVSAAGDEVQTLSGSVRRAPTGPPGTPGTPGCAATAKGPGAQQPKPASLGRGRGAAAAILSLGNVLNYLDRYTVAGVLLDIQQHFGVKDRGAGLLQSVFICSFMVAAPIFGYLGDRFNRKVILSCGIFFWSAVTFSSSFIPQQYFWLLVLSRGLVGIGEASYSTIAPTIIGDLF
T2 sequence (Q8IVW8 223-549 limits assumed): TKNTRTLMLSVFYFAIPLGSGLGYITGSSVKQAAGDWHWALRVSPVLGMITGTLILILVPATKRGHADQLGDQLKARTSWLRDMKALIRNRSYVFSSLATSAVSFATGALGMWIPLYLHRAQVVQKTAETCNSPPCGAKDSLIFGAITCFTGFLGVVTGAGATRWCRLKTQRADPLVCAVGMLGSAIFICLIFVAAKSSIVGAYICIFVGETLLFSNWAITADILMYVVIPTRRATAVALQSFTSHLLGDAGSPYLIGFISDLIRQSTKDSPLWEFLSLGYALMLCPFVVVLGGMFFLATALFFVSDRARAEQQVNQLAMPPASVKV

| Compound | cell-based FTY720-P transport assay, WT vs mutants [1] | cryo-EM structure (3.60 Å); affinity selection mass spectrometry; cell-based S1P [2] |
| --- | --- | --- |
| CCCCCCCCc1ccc(CC[C@](N)(CO)COP(=O)(O)O)cc1 [FTY720-P] | substitutions also significantly decreased FTY720-P transport activity, which indicates a similar FTY720-P transport mechanism as S1P | – |
| CCCCCCCCCCCCC/C=C/[C@@H](O)[C@@H](N)COP(=O)(O)O [S1P, sphingosine-1-phosphate] | – | The affinity selection mass spectrometry results confirmed that endogenous S1P bound to Spns2fusion |

Reference: article PMC10837133, “Molecular basis of Spns2-facilitated sphingosine-1-phosphate transport” (Cell Research, 2023)
